From a flash point compilation (Sun et al. 2020)
Counter-ions that a name gives are not always drawn.

| Compound | flash point [°C] |
| --- | --- |
| CCCCBr [1-bromobutane] | 18.00 |
| CCCBr [1-bromopropane] | 26.00 |
| CC(C)CCl [1-chloro-2-methylpropane] | -10.00 |
| CCCCl [1-chloropropane] | -18.00 |
| CCOCCO [2-ethoxyethanol] | 41.00 |
| CC(C)CC(=O)O [3-methylbutanoic acid] | 70.00 |
| CCBr [bromoethane] | -23.00 |
| COC(=O)OC [dimethyl carbonate] | -1.00 |
| C1COCCN1 [morpholine] | 38.00 |
| CCCCC=O [pentanal] | 12.00 |
| CC(=O)OC(C)(C)C [tert-butyl acetate] | 22.00 |

Remark: another data set of the same source

| Compound | flash point [°C] |
| --- | --- |
| C1=CCC=CC1 [1,4-cyclohexadiene] | -6 |
| CCCCBr [1-bromobutane] | 13 |
| CCCBr [1-bromopropane] | 21 |
| CC(C)CCl [1-chloro-2-methylpropane] | 21 |
| CCCCl [1-chloropropane] | -31 |
| CCOCCO [2-ethoxyethanol] | 44 |
| Cc1ccccn1 [2-picoline] | 28 |
| C=CC(=O)OCCCC [2-propenoic acid, butyl ester] | 37 |
| Cc1ccc(O)c(C(C)(C)C)c1 [2-t-butyl-4-methylphenol] | 100 |
| Cc1cccc(C(C)(C)C)c1O [2-t-butyl-6-methylphenol] | 107 |
| C=CCCO [3-buten-1-ol] | 33 |
| C=CC(C)O (stereo not drawn) [3-buten-2-ol] | 20 |
| SCCCCl [3-chloro-1-propanethiol] | 43 |
| OCCCCl [3-chloro-1-propanol] | 73 |
| C=C(C)CCl [3-chloro-2-methyl-1-propene] | -12 |
| Cc1cccc(Cl)c1 [3-chlorotoluene] | 50 |
| CCCC(CC)CC [3-ethylhexane] | 6 |
| CCCC(=O)CC [3-hexanone] | 35 |
| N#CCCO [3-hydroxypropanenitrile] | 129 |
| C=CC(C)=CC [3-methyl-1,3-pentadiene] | -28 |
| CCC(C)C(C)O (stereo not drawn) [3-methyl-2-pentanol] | 40 |
| CC(C)CC(=O)O [3-methylbutanoic acid] | 74 |
| C=Cc1cccc(C)c1 [3-methylstyrene] | 51 |
| CCCCCC(O)CC (stereo not drawn) [3-octanol] | 65 |
| CCCCCC(=O)CC [3-octanone] | 53 |
| CCOC(=O)CC(C)=O [3-oxobutanoic acid ethyl ester] | 70 |

| Compound | flash point [°C] |
| --- | --- |
| CCC(O)CC [3-pentanol] | 34 |
| C=CCCBr [4-bromo-1-butene] | 9 |
| Brc1ccc(-c2ccccc2)cc1 [4-bromobiphenyl] | 144 |
| CCc1ccc(O)cc1 [4-ethylphenol] | 104 |
| CC(=O)CC(C)C [4-methyl-2-pentanone] | 14 |
| Cc1ccc(N)cc1 [4-methylaniline] | 86 |
| CC1CCC(O)CC1 (stereo not drawn) [4-methylcyclohexanol] | 70 |
| CCCCCC(C)CCC (stereo not drawn) [4-methylnonane] | 38 |
| Cc1ccncc1 [4-methylpyridine] | 37 |
| C=Cc1ccc(C)cc1 [4-methylstyrene] | 45 |
| Cc1ccncc1 [4-picoline] | 40 |
| CCCCC=CCCCC [5-decene] | 46 |
| CCCCCC(=O)CCCCC [6-undecanone] | 88 |
| CN(C)CCCN [N,N-dimethyl-1,3-propanediamine] | 35 |
| CN(C)CC1CCCCC1 [N,N-dimethylcyclohexanemethylamine] | 48 |
| CCCCNC(C)=O [N-butylacetamide] | 116 |
| CCNC(C)=O [N-ethylacetamide] | 110 |
| CNC(C)C [N-methyl-2-propanamine] | -31 |
| CNc1ccccc1 [N-methylaniline] | 80 |
| CCCCNC [N-methylbutylamine] | 1 |
| CC(=O)SC(C)(C)C [S-t-butyl thioacetate] | 33 |
| CC(=O)OC(C)(C)C [acetic acid, 1,1-dimethylethyl ester] | 16 |
| CC=Cc1ccc(OC)cc1 [anethole] | 90 |
| Sc1ccccc1 [benzenethiol] | 50 |
| N#Cc1ccccc1 [benzonitrile] | 75 |
| CSCc1ccccc1 [benzyl methyl sulfide] | 73 |

| Compound | flash point [°C] |
| --- | --- |
| c1ccc(CCc2ccccc2)cc1 [bibenzyl] | 129 |
| CCBr [bromoethane] | -20 |
| BrC(Br)Br [bromoform] | 83 |
| C=CC(=O)OCCCC [butyl acrylate] | 39 |
| CCCCOC(=O)CC [butyl propionate] | 32 |
| Cc1ccc(C(C)C)cc1O [carvacrol] | 106 |
| CC(C)=CCCC(C)CC=O (stereo not drawn) [citronellal] | 75 |
| O=C1CCC1 [cyclobutanone] | 10 |
| N#CC1CCCCC1 [cyclohexanecarbonitrile] | 65 |
| SC1CCCCC1 [cyclohexanethiol] | 43 |
| C1CCC2OC2C1 (stereo not drawn) [cyclohexene oxide] | 24 |
| SC1CCCC1 [cyclopentanethiol] | 25 |
| N#CC1CC1 [cyclopropanecarbonitrile] | 32 |
| NC1CC1 [cyclopropylamine] | -25 |
| CC(C)(C)SSC(C)(C)C [di-tert-butyl disulfide] | 67 |
| CC(C)(C)OOC(C)(C)C [di-tert-butyl peroxide] | 12 |
| CCCCSSCCCC [dibutyl disulfide] | 113 |
| CCCCOC(=O)c1ccccc1C(=O)OCCCC [dibutyl phthalate] | 117 |
| CCCCOC(=O)CCCCCCCCC(=O)OCCCC [dibutyl sebacate] | 167 |
| CCCCSCCCC [dibutyl sulfide] | 60 |
| CCOC(=O)CCCC(=O)OCC [diethyl glutarate] | 96 |
| CCOC(=O)c1ccccc1C(=O)OCC [diethyl phthalate] | 160 |
| CCOS(=O)OCC [diethyl sulfite] | 53 |
| CCN(C#N)CC [diethylcyanamide] | 69 |
| COCCOCCOC [diethylene glycol dimethyl ether] | 51 |
| CC(C)NC(C)C [diisopropylamine] | -6 |

| Compound | flash point [°C] |
| --- | --- |
| COC(=O)OC [dimethyl carbonate] | 18 |
| CNC [dimethylamine] | -18 |
| CCCNCCC [dipropylamine] | 7 |
| C=CC1CCCCC1 [ethenylcyclohexane] | 22 |
| CCOC(=O)c1ccccc1 [ethyl benzoate] | 88 |
| CCOC(=O)CCl [ethyl chloroacetate] | 53 |
| CCC1CCCC1 [ethyl cyclopentane] | 15 |
| O=C1OCCO1 [ethylene carbonate] | 150 |
| FC1CCCCC1 [fluorocyclohexane] | 5 |
| OCC(O)CO [glycerol] | 184 |
| CCCCCCC(=O)O [heptanoic acid] | 112 |
| Oc1ccc(O)cc1 [hydroquinone] | 165 |
| Ic1ccccc1 [iodobenzene] | 74 |
| C=C(C)C=O [isobutenal] | -0 |
| C=C(C)C [isobutene] | -76 |
| CC(C)COC(=O)C(C)C [isobutyl isobutyrate] | 40 |
| CCCCCC#CC(=O)OC [methyl 2-octynoate] | 88 |
| CCCC(=O)OC [methyl butyrate] | 11 |
| COC(=O)C1CC1 [methyl cyclopropanecarboxylate] | 17 |
| CCCCCCC(=O)OC [methyl heptanoate] | 52 |
| COC(=O)C(C)C [methyl isobutyrate] | 3 |
| C=C(C)C(C)=O [methyl isopropenyl ketone] | 13 |
| CCC(=O)OC [methyl propionate] | 6 |
| CC1=CC=CC1 [methylcyclopentadiene] | 26 |
| C1COCCN1 [morpholine] | 35 |
| CCCCCCCCC=O [n-nonanal] | 71 |

| Compound | flash point [°C] |
| --- | --- |
| CCCCCOC(C)=O [n-pentyl acetate] | 25 |
| CCCOC(C)=O [n-propyl acetate] | 10 |
| CCc1ccccc1CC [o-diethyl benzene] | 49 |
| Cc1ccc(O)cc1 [p-cresol] | 86 |
| CCCCC=O [pentanal] | 8 |
| O=C=Nc1ccccc1 [phenyl isocyanate] | 51 |
| CCC(=O)O [propionic acid] | 51 |
| c1cc[nH]c1 [pyrrole] | 33 |
| c1ccc2ncccc2c1 [quinoline] | 105 |
| CCC(C)SC(C)CC (stereo not drawn) [s-butyl sulfide] | 39 |
| CCC(C)c1ccccc1 (stereo not drawn) [sec-butylbenzene] | 45 |
| CC(C)(C)OC=O [t-butyl formate] | -9 |
| CSC(C)(C)C [t-butyl methyl sulfide] | -3 |
| CC(C)(C)ON=O [t-butyl nitrite] | -23 |
| CCC(=O)OC(C)(C)C [t-butyl propionate] | 20 |
| CC(=O)OC(C)(C)C [tert-butyl acetate] | 15 |
| COC(C)(C)C [tert-butyl methyl ether] | -28 |
| CC(C)(C)N [tert-butylamine] | -9 |
| C1CCSC1 [thiacyclopentane] | 12 |
| c1ccc(CN(Cc2ccccc2)Cc2ccccc2)cc1 [tribenzylamine] | 203 |
| CCN(CC)CC [triethylamine] | -17 |
| CCCCCCCCCCCc1ccccc1 [undecylbenzene] | 144 |

Remark: another data set of the same source

| Compound | flash point [°C] |
| --- | --- |
| C1=CCC=CC1 [1,4-cyclohexadiene] | -11 |
